Data from US20080221161A1, “HETEROCYCLIC MODULATORS OF TGR5 FOR TREATMENT OF DISEASE” (KALYPSYS, INC., priority 2007, published 2008).

Target: T1, human TGR5 (Homo sapiens, UniProt Q8TDU6)
T1 construct: expressed in transfected cells; host or cells: HEK-293 cells, stably transfected (pcDNA 3.1, Fugene6, geneticin selection)
T1 sequence (Q8TDU6 1-330): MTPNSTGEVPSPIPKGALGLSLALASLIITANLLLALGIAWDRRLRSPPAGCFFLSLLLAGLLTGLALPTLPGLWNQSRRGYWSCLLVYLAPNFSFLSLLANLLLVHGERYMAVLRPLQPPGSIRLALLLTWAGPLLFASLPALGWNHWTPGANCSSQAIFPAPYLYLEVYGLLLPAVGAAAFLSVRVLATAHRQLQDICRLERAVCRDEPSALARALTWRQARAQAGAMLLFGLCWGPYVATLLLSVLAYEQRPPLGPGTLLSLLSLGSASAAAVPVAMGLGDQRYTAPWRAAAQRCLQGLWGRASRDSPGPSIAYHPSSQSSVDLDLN
Experiment: cAMP production assay in HEK293-TGR5 cells
Type: cell-based
Details: HEK293 cells stably expressing human TGR5; 30 minutes stimulation; LANCE cAMP TR-FRET; read-out: cAMP Production in 293-TGR5 Cells EC50
Description: HEK293 cells stably expressing TGR5 (HEK293-TGR5) were established by stably transfecting HEK-293 cells with an expression vector (pcDNA 3.1, Invetrogen) inserted with human TGR5 cDNA using Fugene6 (Roche, Indianapolis, Ind.) according to conventional methods. Cells were grown in DMEM (invitrogen, Carlsbad, Calif.) supplemented with 10% FBS, 1% penicillin/streptomycin under geneticin selection. The presence of TGR5 transcripts in these cells was confirmed using branched DNA (bDNA, Genospectra, Inc., Fremont Calif.) following the manufacturer's protocol and using specific probes for human TGR5. cAMP production assay was performed in high throughput 1536 well format using LANCE cAMP detection kit (Perkin Elmer Inc., Boston, Mass.) according to the manufacturer's protocol. Briefly, HEK293-TGR5 cells were harvested using non-enzymatic cell dissociation buffer (Invitrogen, Carlsbad, Calif.) and suspended in DMEM supplemented with 0.1% FBS at a density of 800,000 cells/ml. Alexa antibody was added to the cell suspension, and 4 ul of the mixture was dispensed in white opaque tissue culture treated Greiner 1536 well plates (USA Scientific, Inc., Ocala, Fla.). After an overnight incubation at 37C in an atmosphere of 10% CO2 and 95% humidity, 1 ul of 5 mM IBMX (Sigma, St. Louis, Mo.) solution in DMEM was dispensed for a final concentration of 1 mM. Cells were then stimulated with test compounds for 30 minutes, after which time 5 ul of detection reagent was added and incubated for 1-7 hrs at room temperature. TR-FRET signal was detected using the Viewlux (Perkin Elmer Inc., Boston Mass.). EC50 values were determined using Graph Pad Prizm analysis (GraphPad Software, Inc).

EC50 [µM] | SMILES
> 10 | COc1ccc2cc(CNCc3ccc(C(F)(F)F)cc3)c(-c3nccs3)nc2c1 [Example 30, 1-(7-methoxy-2-(thiazol-2-yl)quinolin-3-yl)-N-(4-(trifluoromethyl)benzyl)methanamine]
> 10 | COc1ccc2cc(CNCCc3ccc(Cl)cc3)c(-c3nccs3)nc2c1 [Example 31, 2-(4-Chlorophenyl)-N-((7-methoxy-2-(thiazol-2-yl)quinolin-3-yl)methyl)ethanamine]
> 10 | COc1ccc2cc(CN(CCc3ccc(Cl)cc3)C(C)=O)c(-c3ccsc3)nc2c1 [Example 32, N-(4-Chlorophenethyl)-N-((7-methoxy-2-(thiophen-3-yl)quinolin-3-yl)methyl)acetamide]
> 10 | COc1ccc2cc(CN(CCc3ccc(Cl)cc3)S(C)(=O)=O)c(-c3ccsc3)nc2c1 [Example 33, N-(4-Chlorophenethyl)-N-((7-methoxy-2-(thiophen-3-yl)quinolin-3-yl)methyl)methanesulfonamide]
> 10 | COc1ccc2cc(CN(C)CCc3ccc(Cl)cc3)c(-c3ccsc3)nc2c1 [Example 35, 2-(4-Chlorophenyl)-N-((7-methoxy-2-(thiophen-3-yl)quinolin-3-yl)methyl)-N-methylethanamine]
> 10 | COc1ccc2cc(CNCc3ccc(C(F)(F)F)cc3)c(-c3ncco3)nc2c1 [Example 37, 1-(7-Methoxy-2-(oxazol-2-yl)quinolin-3-yl)-N-(4-(trifluoromethyl)benzyl)methanamine]
< 10 | COc1ccc2cc(CNCCc3ccc(Cl)cc3)c(-c3ncco3)nc2c1 [Example 38, 2-(4-Chlorophenyl)-N-((7-methoxy-2-(oxazol-2-yl)quinolin-3-yl)methyl)ethanamine]
< 10 | CSc1ccc2cc(CNCCc3ccc(Br)cc3)c(-c3ccsc3)nc2c1 [Example 39, 2-(4-Bromophenyl)-N-((7-(methylthio)-2-(thiophen-3-yl)quinolin-3-yl)methyl)ethanamine]
> 10 | CSc1ccc2cc(CNCc3ccc(C(F)(F)F)cc3)c(-c3ccsc3)nc2c1 [Example 40, 1-(7-(Methylthio)-2-(thiophen-3-yl)quinolin-3-yl)-N-(4-(trifluoromethyl)benzyl)methanamine]
> 10 | FC(F)(F)c1ccc(CNCc2cc3ccc(Cl)cc3nc2-c2ccsc2)cc1 [Example 41, 1-(7-Chloro-2-(thiophen-3-yl)quinolin-3-yl)-N-(4-(trifluoromethyl)benzyl)methanamine]
< 10 | Cc1ccc2cc(CNCc3ccc(C(F)(F)F)cc3)c(-c3ccsc3)nc2c1 [Example 44, 1-(7-Methyl-2-(thiophen-3-yl)quinolin-3-yl)-N-(4-(trifluoromethyl)benzyl)methanamine]
> 10 | CCOc1ccc2cc(CNCCc3ccc(Br)cc3)c(-c3cccnc3)nc2c1 [Example 45, 2-(4-Bromophenyl)-N-((7-ethoxy-2-(pyridin-3-yl)quinolin-3-yl)methyl)ethanamine]
> 10 | CCOc1ccc2cc(CNCc3ccc(C(F)(F)F)cc3)c(-c3cccnc3)nc2c1 [Example 46, 1-(7-Ethoxy-2-(pyridin-3-yl)quinolin-3-yl)-N-(4-(trifluoromethyl)benzyl)methanamine]
< 10 | COc1ccc2cc(CNCc3ccc(C(F)(F)F)cc3)c(-c3ccccc3)nc2c1 [Example 48, 1-(7-Methoxy-2-phenylquinolin-3-yl)-N-(4-(trifluoromethyl)benzyl)methanamine]
< 10 | CCOc1ccc2cc(CNCCc3ccc(Cl)cc3)c(-c3ccsc3)nc2c1 [Example 50, 2-(4-Chlorophenyl)-N-((7-ethoxy-2-(thiophen-3-yl)quinolin-3-yl)methyl)ethanamine]
< 10 | CCOc1ccc2cc(CNCc3ccc(C(F)(F)F)cc3)c(-c3ccsc3)nc2c1 [Example 51, 1-(7-Ethoxy-2-(thiophen-3-yl)quinolin-3-yl)-N-(4-(trifluoromethyl)benzyl)methanamine]
< 10 | COc1ccc2cc(CNCc3ccc(Br)cc3)c(-c3ccncc3)nc2c1 [Example 52, N-(4-Bromobenzyl)-1-(7-methoxy-2-(pyridin-4-yl)quinolin-3-yl)methanamine]
< 10 | COc1cc(OC)c2cc(CNCc3ccc(C(F)(F)F)cc3)c(-c3ccsc3)nc2c1 [Example 53, 1-(5,7-Dimethoxy-2-(thiophen-3-yl)quinolin-3-yl)-N-(4-(trifluoromethyl)benzyl)methanamine]
< 10 | COc1cc(OC)c2cc(CNCCc3ccc(Br)cc3)c(-c3ccsc3)nc2c1 [Example 54, 2-(4-Bromophenyl)-N-((5,7-dimethoxy-2-(thiophen-3-yl)quinolin-3-yl)methyl)ethanamine]
> 10 | COc1ccc2cc(CNCc3ccc(C(F)(F)F)cc3)c(-c3cscc3C)nc2c1 [Example 55, 1-(7-Methoxy-2-(4-methylthiophen-3-yl)quinolin-3-yl)-N-(4-(trifluoromethyl)benzyl)methanamine]
> 10 | COc1ccc2cc(CNCCc3ccc(Br)cc3)c(-c3cscc3C)nc2c1 [Example 56, 2-(4-Bromophenyl)-N-((7-methoxy-2-(4-methylthiophen-3-yl)quinolin-3-yl)methyl)ethanamine]
< 10 | COc1ccc2cc(CNCCc3ccc(Cl)c(Cl)c3)c(-c3ccsc3)nc2c1 [Example 61, 2-(3,4-Dichlorophenyl)-N-((7-methoxy-2-(thiophen-3-yl)quinolin-3-yl)methyl)ethanamine]
> 10 | COc1ccc2cc(CNCc3ccc4c(c3)OCO4)c(-c3ccsc3)nc2c1 [Example 64, 1-(Benzo[d][1,3]dioxol-5-yl)-N-((7-methoxy-2-(thiophen-3-yl)quinolin-3-yl)methyl)methanamine]
< 10 | COc1ccc2cc(CNCCc3ccc(OC)c(Br)c3)c(-c3ccsc3)nc2c1 [Example 65, 2-(3-Bromo-4-methoxyphenyl)-N-((7-methoxy-2-(thiophen-3-yl)quinolin-3-yl)methyl)ethanamine]
< 10 | COc1ccc2cc(CNCc3ccc(Cl)c(Cl)c3)c(-c3ccsc3)nc2c1 [Example 66, N-(3,4-Dichlorobenzyl)-1-(7-methoxy-2-(thiophen-3-yl)quinolin-3-yl)methanamine]
< 10 | COc1ccc2cc(CNCc3ccc([N+](=O)[O-])cc3)c(-c3ccsc3)nc2c1 [Example 67, 1-(7-Methoxy-2-(thiophen-3-yl)quinolin-3-yl)-N-(4-nitrobenzyl)methanamine]
< 10 | COc1ccc2cc(CNc3ccccc3)c(-c3ccsc3)nc2c1 [Example 68, N-((7-Methoxy-2-(thiophen-3-yl)quinolin-3-yl)methyl)aniline]
< 10 | COc1ccc2cc(CNc3ccc(Cl)cc3)c(-c3ccsc3)nc2c1 [Example 69, 4-Chloro-N-((7-methoxy-2-(thiophen-3-yl)quinolin-3-yl)methyl)aniline]
> 10 | COc1ccc2cc(CNCc3ccncc3)c(-c3ccsc3)nc2c1 [Example 70, 1-(7-Methoxy-2-(thiophen-3-yl)quinolin-3-yl)-N-(pyridin-4-ylmethyl)methanamine]
< 10 | COc1ccc2cc(CNCc3cnc(C)cn3)c(-c3ccsc3)nc2c1 [Example 71, 1-(7-Methoxy-2-(thiophen-3-yl)quinolin-3-yl)-N-((5-methylpyrazin-2-yl)methyl)methanamine]
